Where two headings read alike, the source gives them in different places.
Tests used:
[1] = system: KMS.12.BM cells; assay: KMS.12.BM Cell Viability Assay (Example B1); assay type: cell-based, human; conditions: 3 days, Cell Titer-GLO, read-out: KMS cellular IC50
In short: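 KMS.12.BM human myeloma cells, 5000 cells/well in RPMI with 10% FBS, exposed to a compound concentration range for 3 days. Viable cells measured by ATP-based Cell Titer-GLO luminescence after 10 min at room temperature.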

[2] = molecular target: T1, BRD4-BD1 (Homo sapiens (Human), UniProt O60885); assay: BRD4 AlphaScreen Assay (Example A1), BRD4-BD1; assay type: binding; conditions: H4Ac4 peptide, 3.8 nM BRD4-BD1, read-out: BRD4 BD-1 enzyme IC50
Procedure: (§1) BRD4-BD1 and BRD4-BD2 assays were conducted in white 384-well polystyrene plate in a final volume of 20 μL for BD1 and 40 μL for BD2. Inhibitors were first serially diluted in DMSO and added to the plate wells before the addition of other reaction components. […] After plate sealing, the plate was incubated in the dark at room temperature for 75 min. before reading on a PHERAstar FS plate reader (BMG Labtech). IC50 determination was performed by fitting the curve of percent control activity versus the log of the inhibitor concentration using the GraphPad Prism 5.0 software.

[3] = system: C-myc in KMS.12.BM cells; assay: KMS.12.BM C-Myc ELISA Assay (Example C1); assay type: cell-based; conditions: Homo sapiens, 2 h
Procedure: KMS.12.BM C-Myc ELISA Assay
KMS.12.BM cell line (human myeloma) was purchased from JCRB (Osaka, Japan) and maintained in RPMI with 10% FBS culture medium. To measure the C-myc inhibitory activity of the compounds, the KMS.12.BM cells are plated in the RPMI culture medium at 75000 cells/well/per 200 μL into a 96-well flat bottom polystyrene tissue culture plate (Corning through VWR, NJ), in the presence or absence of a concentration range of test compounds. After 2 h, cells are pelleted and lysed with Cell Extraction Buffer (BioSource, Carlsbad, Calif.) in the presence of protease inhibitors (Life Technologies, Grand Island, N.Y. and Sigma, St Louis, Mo.). Clarified lyses are tested in a C-myc commercial ELISA (Life Technologies, Grand Island, N.Y.).

[4] = molecular target: T2, BRD4-BD2 (Homo sapiens (Human), UniProt O60885); assay: BRD4 AlphaScreen Assay (Example A1), BRD4-BD2; assay type: binding; conditions: H4Ac4 peptide, 20 nM BRD4-BD2, read-out: BRD4 BD-2 enzyme IC50
Procedure: as §1

[5] = molecular target: T1, BRD4-BD1; assay: BRD4 AlphaScreen Assay (Example A2), BRD4-BD1; assay type: binding; conditions: read-out: BRD4 BD-1 enzyme IC50
Procedure: as §1, with “40” for “20”, “60” for “40”, “components. […] The assays were carried out at room temperature in the assay buffer (50 mM Tris-HCl, pH 7.5, 0.01% Tween-20, 0.01% BSA, 5 mM DTT), containing 50 nM Biotin-labeled tetra-acetylated histone H4 peptide (H4Ac4) and BRD4-BD1 or BRD4-BD2 protein at concentration less than 1 nM.” for “components.”

[6] = molecular target: T2, BRD4-BD2; assay: BRD4 AlphaScreen Assay (Example A2), BRD4-BD2; assay type: binding; conditions: read-out: BRD4 BD-2 enzyme IC50
Procedure: as §1, with “40” for “20”, “60” for “40”, “components. […] The assays were carried out at room temperature in the assay buffer (50 mM Tris-HCl, pH 7.5, 0.01% Tween-20, 0.01% BSA, 5 mM DTT), containing 50 nM Biotin-labeled tetra-acetylated histone H4 peptide (H4Ac4) and BRD4-BD1 or BRD4-BD2 protein at concentration less than 1 nM.” for “components.”

Row | Compound | IC50 [2] | IC50 [3] | IC50 [4] | IC50 [5] | IC50 [6] | IC50 [1] | IC50 ([1]; Homo sapiens, 72 h)
1 | Cc1noc(C)c1-c1ccc2[nH]c(=O)n3c2c1OCC3c1cccnc1C(=O)NCC(F)(F)F (single isomer, unassigned) [Example 136, 3-[7-(3,5-dimethylisoxazol-4-yl)-2-oxo-1,2,4,5-tetrahydroimidazo[1,5,4-de][1,4]benzoxazin-4-yl]-N-(2,2,2-trifluoroethyl)pyridine-2-carboxamide] | – | < 1000 nM | – | < 100 nM | < 100 nM | – | < 1000 nM
2 | Cc1noc(C)c1-c1ccc2[nH]c(=O)n3c2c1OCC3c1cccnc1C(=O)NCCO (single isomer, unassigned) [Example 135, 3-[7-(3,5-Dimethylisoxazol-4-yl)-2-oxo-1,2,4,5-tetrahydroimidazo[1,5,4-de][1,4]benzoxazin-4-yl]-N-(2-hydroxyethyl)pyridine-2-carboxamide] | – | < 1000 nM | – | < 100 nM | < 100 nM | – | < 1000 nM
3 | Cc1noc(C)c1-c1ccc2nc(NCC(C)O)n3c2c1OCC3c1ccccc1 (stereo not drawn) [Example 32, 1-{[7-(3,5-Dimethylisoxazol-4-yl)-4-phenyl-4,5-dihydroimidazo[1,5,4-de][1,4]benzoxazin-2-yl]amino}propan-2-ol] | – | < 1000 nM | – | – | – | – | < 1000 nM

Further lines, with some results ahead:

Row | IC50 [2] | IC50 [3] | IC50 [4] | IC50 [5] | IC50 [6] | Compound | IC50 [1] | IC50 ([1]; Homo sapiens, 72 h)
4 | ≤ 100 nM | < 1000 nM | ≤ 100 nM | – | – | Cc1noc(C)c1-c1ccc2[nH]c(=O)n3c2c1OCC3c1ccccc1 (single isomer, unassigned) [Example 1A, 7-(3,5-Dimethylisoxazol-4-yl)-4-phenyl-4,5-dihydroimidazo[1,5,4-de][1,4]benzoxazin-2(1H)-one] | < 1000 nM | –
5 | 100 to 1000 nM | – | 100 to 1000 nM | – | – | Cc1noc(C)c1-c1ccc2[nH]c(=O)n3c2c1OCC3c1ccccc1 (single isomer, unassigned) [Example 1B, 7-(3,5-Dimethylisoxazol-4-yl)-4-phenyl-4,5-dihydroimidazo[1,5,4-de][1,4]benzoxazin-2(1H)-one] | – | –
6 | – | < 1000 nM | – | – | – | Cc1noc(C)c1-c1ccc2nc(N(C)CCO)n3c2c1OCC3c1ccccc1 (stereo not drawn) [Example 34, 2-[[7-(3,5-Dimethylisoxazol-4-yl)-4-phenyl-4,5-dihydroimidazo[1,5,4-de][1,4]benzoxazin-2-yl](methyl)amino]ethanol] | – | < 1000 nM

From patent US10464947B2 (Incyte Corporation, priority 2013, dated 2019)
